Results on twelve compounds are retold here after US20260008793A1, “IONIZABLE CATIONIC LIPIDS INCORPORATING SILICON” (ALDEXCHEM KFT., priority 2022, published 2026).

SMILES strings stand for the structures.

Type in all cases: physicochemical
A short description of data set [1]: LNP size, PDI and zeta potential by Dynamic Light Scattering (Method A). The following applies: LNP formulated by Method A; for Zeta potential (mV): 1xPBS pH 7.4; for PDI / Size (nm): DLS; for Size (nm): Luciferase-mRNA loaded. In short, it runs like this:
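Dynamic light scattering gave particle size, PDI and zeta potential of the LNPs. These were made by microfluidic mixing, 3:1 aqueous to ethanol, of mRNA in 10 mM citrate pH 4.0 with a lipid master mix carrying the ionizable lipid, then dialysed through 100 kDa MWCO tubing.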

The next data set in a line: physchem. How it is done: The synthesized lipids were tested in term of in vitro transfection efficacy and toxicity on HeLa cells. In order to perform the mentioned biological tests, appropriate LNPs had to be formulated from the synthesized lipids. The formulation technique was different in Method A and B. The particle size, PDI and zeta potential of resulting LNPs were determined by means of Dynamic Light Scattering technique (DLS). Prior to biological testing the encapsulation efficiency (EE) of the loaded LNPs was determined by using RiboGreen RNA assay. In case of Method A Luciferase-mRNA while in case of Method B GFP-mRNA was transfected into the cells. In parallel with the transfection experiments, toxicity of the investigated LNPs was determined, in case of Method A resazurin assay while in case of Method B MTT assay was used. In the case of some lipids, the apparent pKa in LNPs was determined by using TNS titration based on the method described: Angew Chem Int Ed Engl. 2012, 51 (34), 8529-8533, doi: 10.1002/anie.201203263).

Data set [2] in a line: Encapsulation efficiency, RiboGreen RNA assay (Method A). To be noted: LNP formulated by Method A. In outline:
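mRNA-LNPs (Method A formulation) diluted in TE buffer pH 7.4/7.5 and measured in duplicate with and without Triton lysis (37° C., 10 min). RiboGreen fluorescence read at ex 480/em 525. mRNA quantified against a standard curve.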

With `CCCCCCCCCCCOC(=O)CCCCCN(CCO)CCCCCCCCCC(OCCCCCCCC)O[Si](C)(C)CCCCCC` (centres unmarked) [Example 210, undecyl 6-((10-((hexyldimethylsilyl)oxy)-10-(octyloxy)decyl)(2-hydroxyethyl)amino)hexanoate], in data set [1], the “Zeta potential (mV)” value is given as −18.75 mV, the PDI amounted to 0.097 and the “Size (nm)” value was 181.2 nm. In the data set “physchem”, the pKa (commonly the pH at which an ionisable group is half protonated) came out at 6.4. Also, in data set [2], the “EE (%)” value is on record as 99%.

As for `CCCCCCCCCCCOC(=O)CCCCCN(CCO)CCCCCCCCCOC(CCCCCCC)O[Si](C)(C)CCCCCC` (centres unmarked) [Example 209, undecyl 9-heptyl-20-(2-hydroxyethyl)-7,7-dimethyl-8,10-dioxa-20-aza-7-silahexacosan-26-oate], in data set [1], the “Zeta potential (mV)” value was −12.11 mV, the PDI was 0.018 and the “Size (nm)” value stood at 161.6 nm. The same compound showed a pKa in “physchem” of 6.61. Besides, in data set [2], the “EE (%)” value worked out at 97%.

With `CCCCCCCCOC(CCCCCCC)O[Si](C)(C)OCCCCCCN(CCCCO)CCCCCCOC(=O)C(CCCCCCCC)SCCCCC` (centres unmarked) [Example 188, 17-heptyl-7-(4-hydroxybutyl)-15,15-dimethyl-14,16,18-trioxa-7-aza-15-silahexacosyl 2-(pentylthio)decanoate], in data set [1], the “Zeta potential (mV)” value was −18.1 mV, the PDI came out at 0.08 and the “Size (nm)” value is reported as 160.0 nm. In addition, the pKa in the data set “physchem” was determined as 6.34. In data set [2], the “EE (%)” value came out at 98%.

For `CCCCCCCCCCSC(CCCC)C(=O)OCCCCCCN(CCCCO)CCCCCCOC(CCCCCCC)O[Si](C)(C)CCCCCCCC` (centres unmarked) [Example 167, 15-heptyl-7-(4-hydroxybutyl)-17,17-dimethyl-14,16-dioxa-7-aza-17-silapentacosyl 2-(decylthio)hexanoate], in data set [1], the “Zeta potential (mV)” value is reported as −13.69 mV, the PDI is recorded as 0.04 and the “Size (nm)” value is 202.9 nm. Moreover, the pKa in “physchem” came out at 6.42. In addition, in data set [2], the “EE (%)” value is reported as 98%.

Consider `CCCCCCCCCCSC(CCCC)C(=O)OCCCCCCN(CCCCO)CCCCCCO[Si](C)(C)OC(CCCCCCC)OCCCCCCCC` (centres unmarked) [Example 176, 17-heptyl-7-(4-hydroxybutyl)-15,15-dimethyl-14,16,18-trioxa-7-aza-15-silahexacosyl 2-(decylthio)hexanoate], for which, in data set [1], the “Zeta potential (mV)” value was −15.0 mV, the PDI stood at 0.18 and the “Size (nm)” value is given as 175.00 nm. This compound gave a pKa in the data set “physchem” of 6.48. For the same compound, in data set [2], the “EE (%)” value was 95%.

Turning to `CCCCCCCCOC(CCCCCCC)O[Si](C)(C)CCCCCCN(CCCCO)CCCCCCOC(=O)C(CCCCCCCC)SCCCCC` (centres unmarked) [Example 187, 16-heptyl-7-(4-hydroxybutyl)-14,14-dimethyl-15,17-dioxa-7-aza-14-silapentacosyl 2-(pentylthio)decanoate], in data set [1], the “Zeta potential (mV)” value is given as −14.47 mV, the PDI worked out at 0.255 and the “Size (nm)” value came to 334.9 nm. The “EE (%)” value in data set [2] came out at 92%.

As for `CC/C=C\C/C=C\C/C=C\C/C=C\C/C=C\CCCCN(CCCCO)CCCCCCOC(CCCCCCC)O[Si](C)(C)CCCCCCCC` (centres unmarked) [Example 195, 13-heptyl-5-((5Z,8Z,11Z,14Z,17Z)-icosa-5,8,11,14,17-pentaen-1-yl)-15,15-dimethyl-12,14-dioxa-5-aza-15-silatricosan-1-ol], in data set [1], the “Zeta potential (mV)” value was −5.8 mV, the PDI was 0.04 and the “Size (nm)” value is 155.2 nm. For the same compound, in data set [2], the “EE (%)” value amounted to 96%.

As for `CC/C=C\C/C=C\C/C=C\C/C=C\C/C=C\CCCCN(CCCCO)CCCCCC(OCCCCCCCC)O[Si](C)(C)OCC(CCCCCC)CCCCCCCC` (centres unmarked) [Example 202, 16-hexyl-5-((5Z,8Z,11Z,14Z,17Z)-icosa-5,8,11,14,17-pentaen-1-yl)-13,13-dimethyl-11-(octyloxy)-12,14-dioxa-5-aza-13-silatetracosan-1-ol], in data set [1], the “Zeta potential (mV)” value is listed as −10.0 mV, the PDI came to 0.072 and the “Size (nm)” value worked out at 154.8 nm. In addition, in data set [2], the “EE (%)” value is given as 96%.

On to `CCCCCCCCOC(CCCCCCCC)O[Si](C)(C)OCCCCCCN(CCCCO)CCCCCCOC(=O)C(CCCCCC)CCCCCCCC` (centres unmarked) [Example 143, 7-(4-hydroxybutyl)-15,15-dimethyl-17-octyl-14,16,18-trioxa-7-aza-15-silahexacosyl 2-hexyldecanoate], for which, in data set [1], the “Zeta potential (mV)” value was −5.5 mV, the PDI is given as 0.17 and the “Size (nm)” value is recorded as 159.7 nm. The “EE (%)” value in data set [2] turned out to be 95%.

On to `CCCCCCCCOC(CCCCCN(CCCCO)CCCCCCOC(=O)C(CCCCCCCC)SCCCCC)O[Si](C)(C)O[Si](C)(C)CCCCCCCC` (centres unmarked) [Example 181, 6-((4-hydroxybutyl)(6-(octyloxy)-6-((1,1,3,3-tetramethyl-3-octyldisiloxaneyl)oxy)hexyl)amino)hexyl 2-(pentylthio)decanoate], for which, in data set [1], the “Zeta potential (mV)” value was −14.73 mV, the PDI turned out to be 0.049 and the “Size (nm)” value is reported as 188.6 nm. In data set [2], the “EE (%)” value was 97%.

For `CCCCCCCCO[Si](C)(C)OC(CCCCCCC)OCCCCCCN(CCCCO)CCCCCCOC(=O)C(CCCCCC)CCCCCCCC` (centres unmarked) [Example 131, 15-heptyl-7-(4-hydroxybutyl)-17,17-dimethyl-14,16,18-trioxa-7-aza-17-silahexacosyl 2-hexyldecanoate], in data set [1], the “Zeta potential (mV)” value is on record as −16.95 mV, the PDI stood at 0.219 and the “Size (nm)” value is given as 244.2 nm. The “EE (%)” value in data set [2] is 95%.

Take `CC/C=C\C/C=C\C/C=C\C/C=C\C/C=C\CCCCN(CCCCO)CCCCCCOC(CCCCCCC)O[Si](C)(C)OCCCCCCCC` (centres unmarked) [Example 197, 13-heptyl-5-((5Z,8Z,11Z,14Z,17Z)-icosa-5,8,11,14,17-pentaen-1-yl)-15,15-dimethyl-12,14,16-trioxa-5-aza-15-silatetracosan-1-ol]: in data set [1], the “Zeta potential (mV)” value is −12.3 mV, the PDI came to 0.135 and the “Size (nm)” value turned out to be 170 nm. For the same compound, the “EE (%)” value in data set [2] is reported as 97%.
